Laboratory results published in patent publication US10011573B2, “Human androgen receptor DNA-binding domain (DBD) compounds as therapeutics and methods for their use” (The University of British Columbia, priority 2014, dated 2018).
Like-named read-outs stand apart in the source and are kept apart here.

Tests used:
androgen receptor (AR) = biological target: T1, androgen receptor (AR) (Homo sapiens, UniProt P10275, T878A); assay: eGFP cellular AR transcription assay (LNCaP eGFP cells, LN-ARR2PB-eGFP); details: for anti-AR activity (AR transcriptional inhibition) in words: LNCaP (T877A AR); for inhibition at 3 µM: LNCaP, read-out: % Inhibition (3 μM)
T1 sequence (P10275 1-920 T878A): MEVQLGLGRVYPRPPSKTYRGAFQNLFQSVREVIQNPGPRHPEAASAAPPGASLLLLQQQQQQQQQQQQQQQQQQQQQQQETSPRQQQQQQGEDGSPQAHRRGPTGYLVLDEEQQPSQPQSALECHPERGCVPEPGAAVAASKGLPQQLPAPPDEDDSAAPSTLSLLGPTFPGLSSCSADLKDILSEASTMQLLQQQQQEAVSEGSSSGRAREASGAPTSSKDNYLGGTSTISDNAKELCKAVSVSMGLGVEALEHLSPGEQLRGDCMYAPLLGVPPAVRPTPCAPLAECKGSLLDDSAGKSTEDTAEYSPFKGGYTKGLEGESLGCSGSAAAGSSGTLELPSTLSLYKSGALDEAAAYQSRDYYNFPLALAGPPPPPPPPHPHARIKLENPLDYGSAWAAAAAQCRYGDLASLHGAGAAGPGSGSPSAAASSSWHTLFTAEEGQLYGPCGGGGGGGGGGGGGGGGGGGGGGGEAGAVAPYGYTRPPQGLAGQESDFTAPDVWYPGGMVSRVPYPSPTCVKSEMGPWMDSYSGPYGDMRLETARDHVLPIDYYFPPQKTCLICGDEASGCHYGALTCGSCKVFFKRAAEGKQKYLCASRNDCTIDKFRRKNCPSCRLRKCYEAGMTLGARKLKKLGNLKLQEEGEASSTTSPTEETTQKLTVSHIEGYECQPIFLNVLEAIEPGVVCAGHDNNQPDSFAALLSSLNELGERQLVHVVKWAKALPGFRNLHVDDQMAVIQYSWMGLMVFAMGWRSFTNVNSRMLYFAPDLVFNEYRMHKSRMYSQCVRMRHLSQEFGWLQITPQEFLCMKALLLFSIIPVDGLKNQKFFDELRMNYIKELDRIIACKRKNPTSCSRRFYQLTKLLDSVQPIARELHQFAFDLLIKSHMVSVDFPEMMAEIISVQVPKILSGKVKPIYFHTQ

[1] = biological target: T2, AR hormone binding site (recombinant wild type LBD) (Rattus norvegicus, UniProt P15207); assay: Androgen displacement assay (Polar Screen Androgen Receptor Competitor Green Assay Kit); details: fluorescence polarization
T2 construct: displace DHT from the ABS site of recombinant wild type LBD
T2 sequence (P15207 651-882 limits assumed): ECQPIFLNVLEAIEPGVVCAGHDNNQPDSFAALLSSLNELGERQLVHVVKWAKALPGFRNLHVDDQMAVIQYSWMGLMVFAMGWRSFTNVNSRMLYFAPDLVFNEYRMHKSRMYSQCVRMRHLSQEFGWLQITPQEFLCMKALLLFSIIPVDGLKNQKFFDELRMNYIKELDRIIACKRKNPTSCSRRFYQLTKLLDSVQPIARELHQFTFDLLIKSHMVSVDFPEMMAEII
Protocol: 5. Androgen displacement assay: The androgen displacement was assessed with the Polar Screen Androgen Receptor Competitor Green Assay Kit as per the instructions of the manufacturer (Lack, Axerio-Cilies et al. 2011).
The ability of the above chemicals to displace DHT from the ABS site of recombinant wild type LBD was measured using a fluorescent polarization assay (PolarScreen™, Life Technologies) at various concentrations.

PSA = assay: Prostate-specific antigen (PSA) assay, secreted PSA from the eGFP assay plates; assay type: cell-based, human
Protocol: 3. Prostate-specific antigen (PSA) assay: The evaluation of PSA levels secreted into the media was performed in parallel to the eGFP assay using the same plates. After cells were incubated for 3 days, 150 μl of the media was taken from each well, and added to 150 μl of PBS.

AR target genes = assay: Microarray genetic profile in LNCaP cells; details: 1 nM R1881, 24 h
[2] = eGFP IC50, LNCaP eGFP cells, 0.1 nM R1881
[3] = eGFP IC50 (μM), LNCaP eGFP cells

Compound | IC50 (androgen receptor (AR); eGFP IC50 (μM), Series 1) | IC50 (PSA; Homo sapiens, Series 1) | IC50 (PSA; Homo sapiens, secreted PSA) | IC50 (androgen receptor (AR); [3]) | inhibition at 3 µM (androgen receptor (AR)) | further results
c1ccc(-c2csc(N3CCOCC3)n2)nc1 [Compound 14436] | 2.51 µM | – | – | – | – | anti-AR activity (AR transcriptional inhibition) in words (androgen receptor (AR)): maintained good potency; partial agonistic effect (androgen receptor (AR); LNCaP eGFP cells): no undesired partial agonistic effect; IC50 (androgen receptor (AR); [2]): 4.53 ± 0.26 µM; Androgen Displacement IC50 [1]: No displacement
FC(F)(F)C1CN(c2nc(-c3ccccc3)cs2)CCO1 (stereo not drawn) [Compound 14250] | – | – | – | – | – | IC50 (PSA; Series 1): 0.16 µM; IC50 (androgen receptor (AR); read-out: eGFP IC50): 1.64 µM
Ic1ncn(-c2csc(N3CCOCC3)n2)c1I [Compound 14464, 4-(4-(4,5-diiodo-1H-imidazol-1-yl)thiazol-2-yl)morpholine] | 1.5 µM | 1.81 µM | – | – | – | –
Brc1ccc2nc(N3CCOCC3)ccc2c1 [Compound 14452] | – | – | 0.17 µM | 0.11 µM | – | –
CCOC(=O)c1c(C)[nH]c(C(=O)N[C@@H]2CCCc3ccccc32)c1C [Compound 14002] | – | – | 3.54 µM | 11.8 µM | – | –
N#Cc1ccc(-c2ccc(N3CCOCC3)s2)cc1 [Compound 14117] | 1.43 µM | 0.885 µM | – | – | 111% | –
c1ccc2nc(N3CCOCC3)ccc2c1 [Compound 14401] | – | – | 0.69 µM | 0.85 µM | 76% | –
c1cc(-c2csc(N3CCCCC3)n2)cs1 [Compound 14131] | 0.82 µM | 0.54 µM | – | – | 117% | –
Oc1c(-c2csc(N3CCOCC3)n2)ccc(F)c1F [Compound 14371] | 0.8 µM | 0.7 µM | – | – | 98.9% | –
c1ccc(-c2csc(-c3ccccn3)n2)cc1 [Compound 14130] | – | – | – | – | – | IC50 (PSA; Series 1): 8.54 µM; IC50 (androgen receptor (AR); read-out: eGFP IC50): 7.4 µM
C[C@]1(O)CC[C@H]2[C@@H]3CCC4=CC(=O)CCC4=C3C=C[C@@]21C [Compound R1881, R1881, reference compound] | – | – | – | – | – | FKBP5 gene expression fold change, DMSO+R1881 against DMSO-R1881 (AR target genes): 1.61; KLK2 gene expression fold change, DMSO+R1881 against DMSO-R1881 (AR target genes): 3.60; KLK3 (PSA) gene expression fold change, DMSO+R1881 against DMSO-R1881 (AR target genes): 2.42; TMPRSS2 gene expression fold change, DMSO+R1881 against DMSO-R1881 (AR target genes): 2.25
Oc1cc(F)ccc1-c1csc(N2CCOCC2)n1 [Compound 14364] | – | – | – | – | – | IC50 (PSA; Series 1): 0.81 µM; % Inhibition (3 μM) (androgen receptor (AR)): 91.26%; IC50 (androgen receptor (AR); read-out: eGFP IC50): 1.22 µM
Oc1cccc(N2Cc3ccccc3C2)c1 [Compound 14309] | – | – | 0.5 µM | 0.75 µM | – | –
c1ccc2nc(-c3ccncc3)ccc2c1 [Compound 14320] | – | – | 2.26 µM | 4.2 µM | 62% | –
O=[N+]([O-])c1cccc2ccc(N3CCOCC3)nc12 [Compound 14398] | – | – | 0.85 µM | 0.82 µM | – | –
c1cc(-c2csc(N3CCOCC3)n2)ccn1 [Compound 14435] | 2.61 µM | – | – | – | – | anti-AR activity (AR transcriptional inhibition) in words (androgen receptor (AR)): maintained good potency; partial agonistic effect (androgen receptor (AR); LNCaP eGFP cells): no undesired partial agonistic effect; IC50 (androgen receptor (AR); [2]): 3.87 ± 1.26 µM; Androgen Displacement IC50 [1]: No displacement
Oc1cccc2ccc(N3CCOCC3)nc12 [Compound 14400] | – | – | 0.38 µM | 0.46 µM | 79% | –
Cc1scc(-c2csc(N3CCOCC3)n2)c1C [Compound 14408, 4-(4-(4,5-dimethylthiophen-3-yl)thiazol-2-yl)morpholine] | 0.42 µM | 0.43 µM | – | – | – | –
Clc1cn(-c2csc(N3CCOCC3)n2)cn1 [Compound 14448, 4-(4-(4-chloro-1H-imidazol-1-yl)thiazol-2-yl)morpholine] | 0.96 µM | 0.72 µM | – | – | – | –

Compound | IC50 (androgen receptor (AR); eGFP IC50 (μM), Series 1) | IC50 (PSA; Homo sapiens, Series 1) | IC50 (PSA; Homo sapiens, secreted PSA) | IC50 (androgen receptor (AR); [3]) | inhibition at 3 µM (androgen receptor (AR)) | further results
Nc1nc(-c2ccc3ccccc3c2)cs1 [Compound 14204] | – | – | 10.6 µM | 9.16 µM | 67.2% | –
CCC1CN(c2nc3ccccc3s2)CCO1 (stereo not drawn) [Compound 14392] | – | – | 10.4 µM | 7.07 µM | 55.5% | –
N#Cc1cc(N2CCOCC2)nc2ccccc12 [Compound 14395] | – | – | 0.54 µM | 0.54 µM | 103% | –
Fc1ccc2sc(N3CCOCC3)nc2c1F [Compound 14409] | – | – | 0.34 µM | 0.36 µM | 86% | –
c1ccc(-c2ccc3ccccc3n2)cc1 [Compound 14390] | – | – | 1.23 µM | 2.6 µM | 80.2% | –
Cc1[nH]c2ccccc2c1-c1csc(N2CCOCC2)n1 [Compound 14135] | 6.89 µM | 7.8 µM | – | – | 64% | –
c1ccc2cc(-c3cscn3)ccc2c1 [Compound 14193] | – | – | 0.64 µM | 1.3 µM | – | –
c1ccc(-c2csc(-c3ccncc3)n2)cc1 [Compound 14352] | – | – | – | – | – | IC50 (PSA; Series 1): 0.63 µM; IC50 (androgen receptor (AR); read-out: eGFP IC50): 1.19 µM
COc1c(-c2csc(N3CCOCC3)n2)ccc(F)c1F [Compound 14370] | 0.19 µM | 0.25 µM | – | – | 107% | anti-AR activity (AR transcriptional inhibition) in words (androgen receptor (AR)): improved activities
c1csc(-c2nc(-c3c[nH]c4ccccc34)cs2)c1 [Compound 14481] | 2.18 µM | 1.41 µM | – | – | 80.5% | –
FC(F)(F)c1cccc(-c2csc(N3CCOCC3)n2)c1 [Compound 14292] | 0.61 µM | 0.58 µM | – | – | – | –
CNc1nc(-c2ccc3ccccc3c2)cs1 [Compound 14203] | – | – | 3.91 µM | 3.17 µM | 91.5% | –
Oc1c(F)cccc1-c1csc(N2CCOCC2)n1 [Compound 14365] | 0.27 µM | 0.16 µM | – | – | 97.4% | –
Fc1ccc(-c2csc(N3CCOCC3)n2)cc1F [Compound 14264] | 0.24 µM | 0.11 µM | – | – | 115% | –
Clc1ncn(-c2csc(N3CCOCC3)n2)c1Br [Compound 14451, 4-(4-(5-bromo-4-chloro-1H-imidazol-1-yl)thiazol-2-yl)morpholine] | 0.33 µM | 0.44 µM | – | – | – | –
Fc1ccc(F)c(-c2csc(N3CCOCC3)n2)c1 [Compound 14262] | – | – | – | – | – | IC50 (PSA; Series 1): 10.5 µM; % Inhibition (3 μM) (androgen receptor (AR)): 96.6%
c1ccc(-c2ccc(N3CCOCC3)s2)cc1 [Compound 14103] | 0.522 µM | 0.511 µM | – | – | 100% | –
c1ccc(-c2csc(N3CCCCC3)n2)cc1 [Compound 14233] | 1.02 µM | 0.69 µM | – | – | – | –
